Test results from US10729674B2, “Nanoparticle isoflavone compositions and methods of making and using the same” (Humanetics Corporation, priority 2010, dated 2020).
≈ marks a conversion by molar mass, not a printed value. Like-named read-outs stand apart in the source and are kept apart here.

What was measured:
[1] = Pharmacokinetics and excretion in mice after IV or IM 14C-Genistein (Example 8); type: in vivo; conditions: for Bioavailibility / AUC0-inf / AUC0-tlast / Cmax / Extrapolation / ke1 / tlast: male CD1 mice, total radioactivity; for Bioavailibility: Group 2 single IM 200 mg/kg vs IV; for Excretion recovery: by 168 hours post dose
Protocol: As shown in the results of Table 10, male CD1 mice were administered a single IM dose (Group 2, nominal 200 mg/kg) or a single IV bolus dose (Group 3, nominal 50 mg/kg) of ^14C-Genistein. The genistein formulation used was a suspension formulation that includes genistein suspended in sterile water with 0.2% (w/w) Polysorbate 80 and 5% (w/w) PVP K17. […] Following dosing, the content and concentration of radioactivity in blood, plasma, excreta and carcass, and the non-compartmental pharmacokinetics of total radioactivity in whole blood and plasma were determined, Following dose administration, the extent and severity of any clinical signs was assessed.
(§1) Whole-blood samples were collected and plasma was obtained by centrifugation. The concentration of radioactivity in whole-blood and plasma was measured by liquid scintillation spectroscopy.

[2] = Radiochemical stability of the test article in dose formulations; type: physicochemical; conditions: for mean stability value (radiochemical): dog study; for mean radiochemical stability: mouse study
Protocol: The concentration of radioactivity in both dose formulations was measured pre and post dose by liquid scintillation spectroscopy and was similar on both occasions. The radiochemical stability of the test article in both dose formulations was assessed prior to and following the administration of the dose. The mean radiochemical stability of the test article in the dose formulation samples from the intramuscular dose formulation (Group 2) were 98.5% and 98.2%, respectively. The mean radiochemical stability values for pre and post dose samples from the intravenous dose formulation (Group 3) were 98.3% and 98.5%, respectively. Therefore, the ^14C-Genistein in both formulations was considered to have been radiochemically stable throughout the dosing period.
(§2) Male Beagle dogs were administered a single IV bolus dose (Group 1, nominal 20 mg/kg) or a single IM dose (Group 2, nominal 20 mg/kg) of 14C-Genistein (results shown in Table 11). The Genistein suspension formulation used was prepared as described in Example 8, Following dosing, the content and concentration of radioactivity in blood, plasma and excreta, and the non-compartmental pharmacokinetics of total radioactivity in whole blood and plasma were determined. The concentration of radioactivity in both dose formulations was measured pre and post dose by liquid scintillation spectroscopy and was similar on both occasions. The radiochemical stability of the test article in both dose formulations was assessed prior to and following the administration of the dose. The mean stability values for pre and post dose samples from the intravenous dose formulation (Group 1) were 100% and 99.6%, respectively. The mean stability values for pre and post dose samples from the intramuscular dose formulation (Group 2) were 99.2% and 98.9%, respectively. Therefore, the ^14C-Genistein in both formulations was considered to have been radiochemically stable throughout the dosing period.

[3] = Pharmacokinetics and excretion in Beagle dogs after IV or IM 14C-Genistein (Example 9); type: in vivo; conditions: for AUC0-inf / AUC0-tlast / Cmax / Extrapolation / ke1 / tlast / Bioavailibility: male Beagle dogs, total radioactivity; for Bioavailibility: Group 2 single IM 20 mg/kg vs IV, from AUC0-tlast
Protocol: as §2, §1

[4] = Solubility of genistein in vehicles at 25° C.; type: physicochemical
Protocol: Calculated pka's for genistein range from 7-9, with the predicted solubility increasing above pH 7 in accordance with the lowest pKa. The calculated properties were used to design the appropriate pH range for the pH-solubility profile of genistein in several acceptable cosolvents, which was established to be pH 6-9.
The solubility of genistein in water is not detectable at pH 6-7, which implies the solubility is less than 0.02 mg/mL or ˜0.00002 g/g H2O (lowest concentration), Based on the pH-solubility and solubility in cosolvents, it was determined that PEG400 would be the cosolvent to achieve highest solubility. Since parenteral formulations preferably have a maximum of 50% organic component, the addition of Ethanol (EtOH), Nmethylpyrrolidone (NMP) and a surfactant were considered, since these would be expected to enhance absorption from the injection site. Ethanol has the added benefit of reducing viscosity. […] Solubility was further evaluated in two aqueous/organic mixtures with concentrations acceptable for a parenteral dosage form. Additionally, cyclodextrin formulations were evaluated.

[5] = 25° C.; cited from earlier work
[6] = Group 2 single IM 200 mg/kg, blood
[7] = Group 2 single IM 200 mg/kg, plasma
[8] = Group 3 single IV bolus 50 mg/kg, blood
[9] = Group 3 single IV bolus 50 mg/kg, plasma
[10] = Group 1 single IV bolus 20 mg/kg, blood
[11] = Group 1 single IV bolus 20 mg/kg, plasma
[12] = Group 2 single IM 20 mg/kg, blood
[13] = Group 2 single IM 20 mg/kg, plasma

In the case of `O=c1c(-c2ccc(O)cc2)coc2cc(O)cc(O)c12` [14C-Genistein], the treatment-related clinical signs ([1]; main study male mice, single IM 200 mg/kg or single IV 50 mg/kg) is reported as “No treatment-related clinical signs were observed”, the Bioavailibility ([1]; blood) is reported as 49.7% and the Bioavailibility ([1]; plasma) is reported as 83.5%. The AUC0-inf [1, 6] was 223 μg eq · h/mL, the AUC0-tlast [1, 6] was 222 μg eq · h/mL and the Cmax [1, 6] was 33.3 μg eq/mL. It also gave an Extrapolation [1, 6] of 0.663%, a ke1 [1, 6] of 0.0242 h⁻¹ and a tlast [1, 6] of 168 h. It also gave an AUC0-inf [1, 7] of 387 μg eq · h/mL, an AUC0-tlast [1, 7] of 375 μg eq · h/mL and a Cmax [1, 7] of 63.1 μg eq/mL. It also gave an Extrapolation [1, 7] of 3.18%, a ke1 [1, 7] of 0.0145 h⁻¹ and a tlast [1, 7] of 168 h. For the same compound, the AUC0-inf [1, 8] was 112 μg eq · h/mL, the AUC0-tlast [1, 8] was 99.7 μg eq · h/mL and the Cmax [1, 8] was 60.1 μg eq/mL. It also gave an Extrapolation [1, 8] of 11.4%, a ke1 [1, 8] of 0.0118 h⁻¹ and a tlast [1, 8] of 168 h. For the same compound, the AUC0-inf [1, 9] was 116 μg eq · h/mL, the AUC0-tlast [1, 9] was 116 μg eq · h/mL and the Cmax [1, 9] was 108 μg eq/mL. The Extrapolation [1, 9] was 0.191%, the ke1 [1, 9] was 0.0307 h⁻¹ and the tlast [1, 9] was 168 h. The “tolerability of dose level” value ([1]; mice, 200 mg/kg (IM) and 50 mg/kg (IV)) was “well tolerated”, the “Blood to plasma ratios” value ([1]; mice, Group 2 IM 200 mg/kg, any time post dose) was “less than 1” and the “time post dose of highest mean concentration of radioactivity in plasma and whole blood” value ([1]; mice, Group 2 IM 200 mg/kg, first time point analyzed) was 30 min. The Excretion recovery ([1]; mice, Group 2 IM) was about 92%, the blood-to-plasma ratios ([1]; mice, Group 3 IV 50 mg/kg, 0 to 24 hours) was “less than 1” and the “time post dose of highest mean concentration of radiolabelled material in plasma and whole blood” value ([1]; mice, Group 3 IV 50 mg/kg, first time point analyzed) was 30 min. The Excretion recovery ([1]; mice, Group 3 IV) was “approximately 93%”, the “time within which the majority of the dose administered was excreted” value ([1]; mice, both dose routes) was at most 24 h and the “mean stability value (radiochemical)” value ([2]; intramuscular dose formulation (Group 2), post dose) was 98.9%. For the same compound, the “mean stability value (radiochemical)” value ([2]; intramuscular dose formulation (Group 2), pre dose) was 99.2%, the “mean stability value (radiochemical)” value ([2]; intravenous dose formulation (Group 1), post dose) was 99.6% and the “mean stability value (radiochemical)” value ([2]; intravenous dose formulation (Group 1), pre dose) was 100%. For the same compound, the mean radiochemical stability ([2]; intramuscular dose formulation (Group 2), following dosing) was 98.2%, the mean radiochemical stability ([2]; intramuscular dose formulation (Group 2), prior to dosing) was 98.5% and the mean radiochemical stability ([2]; intravenous dose formulation (Group 3), post dose) was 98.5%. For the same compound, the mean radiochemical stability ([2]; intravenous dose formulation (Group 3), pre dose) was 98.3%, the “Excretion recovery by 168 hours post dose” value ([3]; dogs, Group 1 IV) was “approximately 87.9%” and the “Blood to plasma ratios” value ([3]; dogs, Group 1 IV bolus 20 mg/kg) was “less than 1”. The “time post dose of highest mean concentration of radiolabelled material in plasma and whole blood” value ([3]; dogs, Group 1 IV bolus 20 mg/kg, first time point analyzed) was 15 min, the “Excretion recovery by 168 hours post dose” value ([3]; dogs, Group 2 IM) was about 85.8% and the “time post dose of highest mean concentration of radioactivity in plasma and whole blood” value ([3]; dogs, Group 2 IM 20 mg/kg) was 2 h. For the same compound, the “Blood to plasma ratios” value ([3]; dogs, Group 2 IM 20 mg/kg, any time post dose) was “less than 1”, the Clinical signs ([3]; dogs, IV bolus 20 mg/kg and IM 20 mg/kg, considered to be dose-related) was “Clinical signs were observed in both groups” and the excretion mass balance ([3]; dogs, both dose routes) was “greater than 85%”. For the same compound, the “time within which the majority of the dose administered was excreted” value ([3]; dogs, both dose routes) was at most 48 h, the “overall mean excretion mass balance of radioactivity” value ([3]; dogs, both groups) was 86-88 % of the administered dose and the AUC0-inf [3, 10] was 122 μg eq · h/mL. For the same compound, the AUC0-tlast [3, 10] was 117 μg eq · h/mL, the Cmax [3, 10] was 40.4 μg eq/mL and the Extrapolation [3, 10] was 16.8%. For the same compound, the ke1 [3, 10] was 0.0130 h⁻¹, the tlast [3, 10] was 120 h and the AUC0-inf [3, 11] was 227 μg eq · h/mL. It also gave an AUC0-tlast [3, 11] of 201 μg eq · h/mL, a Cmax [3, 11] of 94.4 μg eq/mL and an Extrapolation [3, 11] of 11.3%. The ke1 [3, 11] was 0.0138 h⁻¹, the tlast [3, 11] was 120 h and the Bioavailibility ([3]; blood) was 92.9%. For the same compound, the Bioavailibility ([3]; plasma) was 96.1%, the AUC0-tlast [3, 12] was 108 μg eq · h/mL and the Cmax [3, 12] was 5.39 μg eq/mL. For the same compound, the tlast [3, 12] was 168 h, the AUC0-inf [3, 13] was 228 μg eq · h/mL and the AUC0-tlast [3, 13] was 193 μg eq · h/mL. It also gave a Cmax [3, 13] of 10.9 μg eq/mL, an Extrapolation [3, 13] of 15.1% and a ke1 [3, 13] of 0.0092 h⁻¹. The tlast [3, 13] was 168 h.
In the case of `O=c1c(-c2ccc(O)cc2)coc2cc(O)cc(O)c12` [Genistein, 5,7-dihydroxy-3-(4-hydroxyphenyl)-chromen-4-one], the solubility ([4]; 25 °C, aqueous with cosolvent or surfactant or cyclodextrin, thermodynamic from solid, 30% Hydroxypropyl-β-cyclodextrin, read-out: Solubility of GENISTEIN at 25° C.) is reported as 6 mg/mL (≈ 22.2 mM), the solubility ([4]; 25 °C, aqueous with cosolvent or surfactant or cyclodextrin, thermodynamic from solid, 30% Sulfobutylether-β-cyclodextrin, read-out: Solubility of GENISTEIN at 25° C.) is reported as 8 mg/mL (≈ 29.6 mM) and the solubility ([4]; 25 °C, organic solvent or mixture, thermodynamic from solid, Dimethyl acetamide (DMA), read-out: Solubility at 25° C.) is reported as 141 mg/mL (≈ 523 mM). For the same compound, the solubility ([4]; 25 °C, organic solvent or mixture, thermodynamic from solid, Ethanol, read-out: Solubility at 25° C.) was 25 mg/mL (≈ 92.5 mM), the solubility ([4]; 25 °C, organic solvent or mixture, thermodynamic from solid, N-methyl pyrrolidone (NMP), read-out: Solubility at 25° C.) was 238 mg/mL (≈ 881 mM) and the solubility ([4]; 25 °C, organic solvent or mixture, thermodynamic from solid, Polyethylene Glycol 300 (PEG300), read-out: Solubility at 25° C.) was 110 mg/mL (≈ 409 mM). The solubility ([4]; 25 °C, organic solvent or mixture, thermodynamic from solid, Polyethylene Glycol 400 (PEG400), read-out: Solubility at 25° C.) was 115 mg/mL (≈ 426 mM), the solubility ([4]; 25 °C, organic solvent or mixture, thermodynamic from solid, Propylene Glycol, read-out: Solubility at 25° C.) was 6.2 mg/mL (≈ 22.9 mM) and the solubility ([4]; 25 °C, pH 6, aqueous buffer, thermodynamic from solid, pH 6-7, not detectable, lowest concentration, read-out: solubility in water) was under 0.02 mg/mL. For the same compound, the solubility ([4]; 25 °C, pH 7, aqueous with cosolvent or surfactant or cyclodextrin, thermodynamic from solid, 10% Polysorbate 80/10% EtOH/40% PEG400/40% 25 mM Phosphate Buffered Saline (pH 7), read-out: Solubility of GENISTEIN at 25° C.) was 12 mg/mL (≈ 44.4 mM), the solubility ([4]; 25 °C, pH 7, aqueous with cosolvent or surfactant or cyclodextrin, thermodynamic from solid, 10% Polysorbate 80/10% NMP/40% PEG400/40% 25 mM Phosphate Buffered Saline (pH 7), read-out: Solubility of GENISTEIN at 25° C.) was 19 mg/mL (≈ 70.3 mM) and the solubility ([4]; 25 °C, pH 7, aqueous with cosolvent or surfactant or cyclodextrin, thermodynamic from solid, 10% Polysorbate 80/40% PEG400/50% 25 mM Phosphate Buffered Saline (pH 7), read-out: Solubility of GENISTEIN at 25° C.) was 11 mg/mL (≈ 40.7 mM). The solubility at 7 days ([4]; 25 °C, pH 9, aqueous buffer, thermodynamic from solid, Borate buffer pH 9, 7 days) was 0.043 mg/mL (≈ 0.159 mM), the solubility at 14 days ([4]; 25 °C, pH 9, aqueous buffer, thermodynamic from solid, Borate buffer pH 9, 14 days) was 0.005 mg/mL (≈ 0.0185 mM) and the “Solubility at 25° C.” value ([4]; Borate buffer pH 9, 3 days) was “Not detected”. The “Solubility at 25° C.” value ([4]; Citrate buffer pH 6) was “Not detected”, the “Solubility at 25° C.” value ([4]; Phosphate buffer pH 7) was “Not detected” and the “Solubility at 25° C.” value ([4]; TRIS buffer pH 8) was “Not detected”. For the same compound, the solubility in water ([4]; pH 6-7, not detectable, lowest concentration) was under 0.00002 g/g H2O, the “stability in pH-solubility profile” value ([4]; pH 9) was “degradation was observed” and the “parts water required to dissolve one part genistein” value [5] was “greater than 50,000 parts water”.
